Laboratory results published in ChEMBL document CHEMBL1123199, “Synthesis and structure-activity relationships of naftifine-related allylamine antimycotics” (1986).
Converted amounts (≈) assume the structure as drawn.

Assays:
Aspergillus fumigatus [1] = test: Antifungal activity was measured against Aspergillus fumigatus; assay type: functional
Candida parapsilosis = test: Antifungal activity against Candida parapsilosis.; assay type: functional; details: Lodderomyces parapsilosis
Microsporum canis = test: Antifungal activity against Microsporum canis; assay type: functional
Sporothrix schenckii = test: Antifungal activity measured against Sporothrix schenck ii.; assay type: functional
Trichophyton benhamiae [2] = test: Antifungal activity measured against Trichophyton mentagrophytes; assay type: functional, Arthroderma benhamiae
Aspergillus fumigatus [3] = test: Antifungal activity measured against Aspergillus fumigatus; assay type: functional
Epidermophyton floccosum = test: Antifungal activity against Epidermophyton floccosum.; assay type: functional
Trichophyton benhamiae [4] = test: ~ Antifungal activity was measured against Trichophyton mentagrophytes.; assay type: functional, Arthroderma benhamiae

For `ON(C/C=C/c1ccccc1)Cc1cccc2ccccc12`, the MIC (Aspergillus fumigatus [1]) was > 100 µg/mL, the MIC (Candida parapsilosis) was > 100 µg/mL and the MIC (Microsporum canis) was 50 µg/mL (≈ 173 µM). The MIC (Sporothrix schenckii) was > 100 µg/mL and the MIC (Trichophyton benhamiae [2]) was 12.5 µg/mL (≈ 43.2 µM).
With `CN(C/C=C/c1ccccc1Cl)Cc1cccc2ccccc12` the MIC (Aspergillus fumigatus [3]) was > 100 µg/mL, the MIC (Candida parapsilosis) was > 100 µg/mL and the MIC (Epidermophyton floccosum) was 3.1 µg/mL (≈ 9.63 µM). For the same molecule, the MIC (Microsporum canis) was < 1.6 µg/mL, the MIC (Sporothrix schenckii) was 25 µg/mL (≈ 77.7 µM) and the MIC (Trichophyton benhamiae [4]) was < 1.6 µg/mL.
